This note sets out measurements from PubChem BioAssay (NCI).

Test systems include OVCAR-5 ovarian; NCI/ADR-RES ovarian; SW-620 colon; OVCAR-8 ovarian; PC-3 prostate; HCT-15 colon; A498 renal; HS 578T breast.
Common to all, as to experiment: growth of human tumour cells (NCI), 48 h

Structures are written as SMILES.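 Cells were grown in 96-well plates and exposed to each compound for 48 hours at five concentrations; endpoints were interpolated linearly between bracketing concentrations, or set to the highest concentration if not reached. Abbreviation: GI50, concentration required for 50% inhibition of growth. The concentration for full growth arrest is given as TGI.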 Where only a bound is given, the exact number is not on record here.

On to `Cc1c([N+](=O)[O-])oc2ccc3ccccc3c12`, for which the TGI with OVCAR-5 ovarian, in the assay on NCI/ADR-RES ovarian, in the assay on SW-620 colon, in the assay with OVCAR-8 ovarian, with PC-3 prostate and in the assay on HCT-15 colon was greater than 100 µM each time. Moreover, the TGI in the assay on A498 renal and in the assay on HS 578T breast was greater than 100 µM each time.
Turning to `O=C(c1ccccc1)c1c(C(F)(F)F)n([O-])c2ccc(C(F)(F)F)cc2[n+]1=O`, the GI50 in the assay on OVCAR-5 ovarian was 0.264 µM; in the assay with NCI/ADR-RES ovarian, 0.239 µM; with SW-620 colon, 0.135 µM; in the assay with OVCAR-8 ovarian, 1.2 µM; with PC-3 prostate, 0.0948 µM; in the assay with HCT-15 colon, 0.277 µM. For the same molecule, the GI50 with A498 renal is 1.7 µM; with HS 578T breast, 0.537 µM. Moreover, the TGI with OVCAR-5 ovarian was 0.753 µM; in the assay on NCI/ADR-RES ovarian, 0.688 µM; in the assay on SW-620 colon it was 0.279 µM; in the assay on OVCAR-8 ovarian it was 3.57 µM; in the assay on PC-3 prostate, 0.229 µM; in the assay on HCT-15 colon, 0.711 µM. For the same molecule, the TGI in the assay on A498 renal turned out to be 3.11 µM; in the assay with HS 578T breast, 1.33 µM.
In the case of `COc1ccc(Cn2cc3c(c2-c2cc(OC)c(OC)c(OC)c2)CCc2cnoc2-3)cc1`, the GI50 is 3.68 µM in the assay on OVCAR-5 ovarian; 0.242 µM in the assay on NCI/ADR-RES ovarian; 0.314 µM with SW-620 colon; 0.485 µM in the assay with OVCAR-8 ovarian; 0.473 µM in the assay on PC-3 prostate; 0.354 µM with HCT-15 colon. Moreover, the GI50 was 0.162 µM with A498 renal and 0.238 µM in the assay on HS 578T breast. Besides, the TGI in the assay on OVCAR-5 ovarian, in the assay with NCI/ADR-RES ovarian, in the assay with SW-620 colon, with OVCAR-8 ovarian, in the assay with PC-3 prostate and with HCT-15 colon was greater than 100 µM in each case. Besides, the TGI with A498 renal stood at 0.726 µM; with HS 578T breast, 0.805 µM.
Consider `COC(=O)C(C)NC(=O)c1ccccc1I(OS(=O)(=O)C(F)(F)F)c1ccccc1` (stereo not drawn), for which the GI50 was 16.9 µM in the assay on OVCAR-5 ovarian; 20.1 µM with NCI/ADR-RES ovarian; 20.9 µM in the assay on SW-620 colon; 36.3 µM in the assay with OVCAR-8 ovarian; 22 µM with PC-3 prostate; 16 µM in the assay on HCT-15 colon. For the same molecule, in the assay with HS 578T breast, the GI50 is 19.6 µM. The TGI is 36.7 µM in the assay with OVCAR-5 ovarian; 42.9 µM in the assay with NCI/ADR-RES ovarian; 44 µM in the assay on SW-620 colon; greater than 100 µM with OVCAR-8 ovarian; 53.1 µM in the assay on PC-3 prostate; 41.7 µM with HCT-15 colon. The molecule further came in with a TGI in the assay on HS 578T breast of 47.9 µM.
In the case of `Cc1c(Cl)cccc1NC(=O)c1sc2nc3c(cc2c1N)CCCCC3`, the GI50 was 1.33 µM in the assay on OVCAR-5 ovarian; 0.232 µM in the assay on SW-620 colon; 0.825 µM with OVCAR-8 ovarian; 0.307 µM with PC-3 prostate; 0.195 µM with HCT-15 colon; 0.331 µM with A498 renal. For the same molecule, in the assay with HS 578T breast, the GI50 was 0.227 µM. Moreover, the TGI was greater than 50 µM in the assay on OVCAR-5 ovarian; greater than 50 µM with SW-620 colon; greater than 50 µM in the assay on OVCAR-8 ovarian; 17.9 µM with PC-3 prostate; greater than 50 µM in the assay with HCT-15 colon; 19.3 µM with A498 renal. Besides, the TGI in the assay with HS 578T breast was greater than 50 µM.
Turning to `CC1=NN(c2nc(N)nc(/C=C\c3ccc([N+](=O)[O-])s3)n2)C(C)(C)C1`, the GI50 with OVCAR-5 ovarian, in the assay on NCI/ADR-RES ovarian, with SW-620 colon, in the assay with OVCAR-8 ovarian, with PC-3 prostate and with HCT-15 colon was greater than 100 µM each time. In the assay on HS 578T breast, the GI50 was greater than 100 µM. The TGI with OVCAR-5 ovarian, in the assay on NCI/ADR-RES ovarian, in the assay on SW-620 colon, in the assay on OVCAR-8 ovarian, in the assay on PC-3 prostate and with HCT-15 colon was greater than 100 µM throughout. Besides, in the assay on HS 578T breast, the TGI was greater than 100 µM.
With `C[C@@H](Nc1nc(Nc2ccc(F)c(Cl)c2)nc2ccccc12)C1CC1`, the GI50 in the assay with OVCAR-5 ovarian was 3.73 µM; in the assay with NCI/ADR-RES ovarian, 2.3 µM; with SW-620 colon it was 3.14 µM; with OVCAR-8 ovarian it was 3.58 µM; in the assay with PC-3 prostate, 2.19 µM; in the assay with HCT-15 colon, 2.39 µM. In addition, the GI50 in the assay on HS 578T breast was 6.02 µM. For the same molecule, the TGI in the assay with OVCAR-5 ovarian is 16 µM; with NCI/ADR-RES ovarian, 8.52 µM; in the assay with SW-620 colon, 13.9 µM; in the assay with OVCAR-8 ovarian it was 20.5 µM; with PC-3 prostate, 8.04 µM; in the assay with HCT-15 colon, 8.14 µM. Also, the TGI in the assay with HS 578T breast came out at 25.6 µM.
For `O=[N+]([O-])c1cccc2nccc(NCCCO)c12`, the TGI in the assay on OVCAR-5 ovarian came out at 35.6 µM; in the assay with SW-620 colon it was 27.6 µM; in the assay on OVCAR-8 ovarian, 37.3 µM; in the assay with PC-3 prostate it was 69.8 µM; in the assay on HCT-15 colon it was 21.2 µM; in the assay with A498 renal it was 23.6 µM. The molecule also yielded a TGI with HS 578T breast of 43.3 µM.
On to `CCCCCn1c(C)cc(/C=C\c2ccc3cc(C)ccc3[n+]2C)c1C`, for which the GI50 in the assay on OVCAR-5 ovarian is 0.313 µM; in the assay with NCI/ADR-RES ovarian, 2.11 µM; in the assay with PC-3 prostate it was 0.0623 µM; in the assay with HCT-15 colon it was 0.49 µM; in the assay with HS 578T breast, 0.166 µM. Further, the TGI with OVCAR-5 ovarian is 1.41 µM; with NCI/ADR-RES ovarian, greater than 34.4 µM; in the assay with PC-3 prostate, 1.03 µM; with HCT-15 colon, 1.9 µM; in the assay with HS 578T breast, 1.75 µM.
Take `O=C(O)c1cc2ccccc2c2c1C(=O)c1ccccc1-2`: the TGI in the assay with OVCAR-5 ovarian, in the assay with NCI/ADR-RES ovarian, in the assay with SW-620 colon, in the assay with OVCAR-8 ovarian, in the assay with PC-3 prostate and in the assay on HCT-15 colon was greater than 100 µM each time. In the assay on HS 578T breast, this molecule gave a TGI greater than 100 µM.
With `CC(=O)c1nc2ccccc2n1CC(=O)c1cccc(Cl)c1`, the GI50 with OVCAR-5 ovarian is 3.42 µM; with NCI/ADR-RES ovarian, 0.231 µM; in the assay on SW-620 colon it was 0.278 µM; in the assay with OVCAR-8 ovarian, 0.873 µM; with PC-3 prostate it was 1.12 µM; in the assay on HCT-15 colon it was 0.246 µM. For the same molecule, the GI50 with A498 renal is 6.52 µM. Besides, the TGI in the assay with OVCAR-5 ovarian is greater than 71.4 µM; with SW-620 colon, greater than 100 µM; in the assay on OVCAR-8 ovarian, greater than 100 µM; in the assay on PC-3 prostate, greater than 100 µM; with HCT-15 colon, greater than 100 µM; in the assay on A498 renal, 88.6 µM.
